ChEMBL document CHEMBL1121676, “1980 Award in Medicinal Chemistry: Medicinal chemistry and dynamic structure-activity analysis in the discovery of drugs acting at histamine H2 receptors” (1981)
Active and inactive are the calls of the source. The rule behind the calls is not given here.

tested on: Rattus norvegicus; assay: Tested for inhibition of histamine-stimulated gastric acid secretion in the lumen-perfused anesthetized rat expressed as intravenous dose which reduces a near maximal secretion to 50%; detectable; type: functional, organism-based; settings: Stomach

| Compound | ID50 |
| --- | --- |
| N=C(N)SCCCc1c[nH]cn1 | inactive |
| CC(=N)NCCc1c[nH]cn1 | detectable |
| CSC(=N)NCCc1c[nH]cn1 | detectable |

tested on: Rattus norvegicus; assay: Tested for inhibition of histamine-stimulated gastric acid secretion in the lumen-perfused anesthetized rat expressed as intravenous dose which reduces a near maximal secretion to 50%; type: functional; settings: Stomach, read-out: ID50 (the source's name)

| Compound | ED50 [µmol/kg] |
| --- | --- |
| CSC(=N)NCCCc1c[nH]cn1 | 100 |
| N=C(N)SCCc1c[nH]cn1 [IMETIT] | 200 |
| N=C(N)NCCCc1c[nH]cn1 | 100 |
| N=C(N)NCCc1c[nH]cn1 | > 500 |
| CC(=N)NCCCc1c[nH]cn1 | 100 |
